# Source: publication PMC10321640, “The VIPR2-selective antagonist KS-133 changes macrophage polarization and exerts potent anti-tumor effects as a single agent and in combination with an anti-PD-1 antibody” (PLOS ONE, 2023)
# Where a SMILES comes first, the peptide text is derived from it. Bridges are numbered along the chain shown (N, C = ends).
# What was measured:
# [1] = Water solubility of the peptides, with or without surfactant (appearance); format: physicochemical
# Protocol: KS-133 and KS-133(P3S) (a substitution of proline at position three of KS-133 with serine) were synthesized at SCRUM Inc. (Tokyo, Japan) using Fmoc-based solid-phase peptide synthesis as previously reported. After reverse phase–high-performance liquid chromatography (RP–HPLC) purification, structural assignment was performed by matrix-assisted laser desorption ionization–time-of-flight mass spectrometry (MS). All analytical data of peptides in this report are presented in S1 Table. Cremophor EL® (CrEL) (09727–14) was purchased from Nacalai Tesque, Inc. (Kyoto, Japan). The nanoformulation of peptide using CrEL was done by basically according to the method as previously reported. First, KS-133 or KS-133(P3S) (20 mg) was dissolved in DMSO (100 μL), giving a concentration of 200 mg/mL. Next, CrEL (100 μL) was mixed with purified water (350 μL). The peptide solution was added dropwise to the stirring CrEL solution and mixed. Then, the peptide/CrEL solution made into a suspension by repeated vortex agitation and sonication at approximately 50°C. Purified water (450 μL) was added to the peptide/CrEL solution, and the same process was repeated. […]
# Fig 3 Nanoformulation of peptides using CrEL and their characterization. […] The determined particle size of KS-133 NPs was approximately 15.34 nm, and that of KS-133(P3S) NPs was approximately 15.96 nm. […]
# [2] = cited from earlier work
# Excerpt: Vasoactive intestinal peptide receptor 2 (VIPR2) is a class-B G protein-coupler receptor that participates in various physiological function by interacting with its ligand vasoactive intestinal peptide (VIP). VIP–VIPR2 signaling has attracted attention as a drug target in the fields of central nervous system diseases, oncology, and immunity. In 2021, we generated 13-mer bicyclic peptide KS-133 as a potent and selective antagonist to VIPR2 [1]. […] Generally, peptides are rapidly degraded by proteases, and even if they are resistant to degradation, they are prematurely excreted from the body via renal filtration. Thus, frequent dosing is needed, reducing patients’ quality of life. KS-133 is stable in plasma for at least 24 h. Unfortunately, daily dosing is required for the anti-tumor effects of KS-133 in vivo. A versatile method for improving the pharmacokinetics of peptides is conjugation with polyethylene glycol, but this req ...
smiles,measurement,setting,value
CC[C@H](C)[C@H](NC(=O)[C@H](CC(C)C)NC(=O)[C@@H]1CC(=O)NCCCC[C@@H]2NC(=O)[C@@H]3CCCN3C(=O)[C@H](CC(C)C)NC(=O)[C@H](Cc3ccc(O)cc3)NC(=O)[C@@H]3CCCN3C(=O)[C@@H]3CCCN3C(=O)[C@@H](NC(C)=O)CSSC[C@H](NC(=O)[C@H](CC(C)C)NC(=O)[C@H](Cc3ccc(O)cc3)NC2=O)C(=O)N1)C(N)=O [KS-133] (Ac-CPPYLPKYLCDLI-NH2; disulfide 1-10; lactam 7-11),concentration that could be dissolved in DMSO(10%)/CrEL(10%),"[1]; Fig 3C, transparent solution immediately after preparation",≥ 20 mg/mL
same,solubility in aqueous solution / water solubility (in words),[1]; without surfactant,poor solubility
same,protease degradation,[2],resistant to protease degradation
same,time stable in plasma,[2]; plasma,at least 24 h
